Source: patent US20250113823A1, “Arthropod Control Compositions” (priority 2022, published 2025)
Read-outs that look alike come from different tables or passages of the source.

Columns and labels:
[1] = test system: Ixodes ricinus; assay: Warm Plate assay, tick repellence; conditions: Ixodes ricinus, read-out: Percentage of repellence of ticks Ixodes ricinus on the warm plate
[2] = test system: Aedes aegypti; assay: Warm Body assay, mosquito landings on treated warm body; format: in vivo
Method in brief: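 Compounds in ethanol (100 μL, various concentrations) were applied to a sandblasted glass dish covering the warm body (28.3 cm^2), with ethanol as control. Landings were counted automatically from 30 non-blood-fed, sugar-fed Aedes aegypti Rockefeller females aged 5–10 days, under 150 lux.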

[3] = test system: Aedes aegypti; assay: Double (dual) chamber assay, spatial repellence; format: in vivo
Procedure: FIG. 1: Percentage of mosquitoes Aedes aegypti escaping over time the chamber treated with a stimulus. The four stimuli were the solvent propan-1,2-diol (grey triangles and dotted line), N,N-diethyl-meta-toluamide (medium grey diamonds), 2,6-dimethoxy-4-methylphenol (light gray squares) and 1,2,3-trimethoxy-5-propylbenzene (black circles). Each stimulus was injected during 40 min thanks to a forced evaporation system in the treated chamber containing the mosquitoes, causing their movement toward the untreated refuge chamber. Each point represents the mean number of mosquitoes in the untreated chamber (n=57, 6, 4 and 4 respectively)±SD at 10 min intervals.
The goal of this assay was to reproduce at a smaller scale the validation test for spatial repellent as described in WHO (2013; ISBN 978 92 4 150502 4).
The assay consists of a transparent cage (1200×755×700 mm; ˜0.63 m^3) covered by white paper. This cage is divided in two chambers of equal dimensions by a plasticized paper wall with square opening (200×200 mm) situated in the middle of the wall. At the beginning of the experiment, about 40 two-weeks old female Aedes aegypti mosquitoes are placed in the right chambers. Once the mosquitoes are settled inside this chamber (>5 min), the door between the chambers is opened. Then the stimulus is introduced into the mosquito chamber through a L-shape Teflon tube (40 mm) placed in the middle of the right Plexiglas wall. The stimulus is dispensed thanks to a Forced Evaporation System (Chappuis et al, 2015, DOI: 10.1021/acs.est.5b00692) at a rate of 0.1 mL/min in a nitrogen flow of 1 L/min, blended in a humid air flow of 9L/min before being carried to the L-shape Teflon tube. An air sucking system (˜150 L/min) is placed above the wall opening, between the two chambers (100 mm Ø), preventing the untreated chamber from being contaminated by the stimulus and limiting the stimulus accumulation in the treated chamber. […] Ten, 20, 30 and 40 minutes after the start of the stimulus injection, the number of mosquitoes that have moved to the untreated chamber is manually counted.

[4] = test system: Aedes aegypti; assay: Free flying room assay, spatial repellence with human volunteer; format: in vivo
Excerpt: The goal of this large-scale test is to assess the propensity of stimulus released in the air to protect a human volunteer by limiting the mosquito presence in a protected space and the number of landing/biting. The protocol used to carry the test is following the guidelines indicated in WHO (2013; ISBN 978 92 4 150502 4).
A group of 50 Aedes aegypti female mosquitoes were introduced in one chamber of 25 m^3 one hour before the test started. The product was applied in the other chamber of 25 m^3 (“treated chamber”) and let evaporate for 30 minutes. The test started when the window separating the two chambers was opened in a tilt-on manner for another 30 minutes. Twenty minutes after the window was opened, a volunteer entered in the “treated chamber” and sat down for 10 minutes, exposing the forearm for the last 3 minutes to determine the probing activity (Protective Efficacy). Then, the connecting window was closed and the number of mosquitoes in each of the chambers was counted (Spatial Repellency). The negative controls were carried out following the same procedure but without the application of the stimulus. Three replicates of each treatment and of the negative control were conducted with three different volunteers.

[5] = test system: Anopheles gambiae; assay: Arm-in-cage test on human volunteers over time; format: in vivo
[6] = test system: Anopheles gambiae; assay: Warm Body assay, mosquito landings on treated warm body; format: in vivo
Procedure: Anopheles gambiae is also a model organism as it is anthropophilic and transmits malaria.
The controlling effect according to the present invention was assessed using an adapted Warm Body assay as defined in Kröber T, Kessler S, Frei J, Bourquin M, Guerin P M. 2010. J Am Mosq Control Assoc. 26: 381-386. In this in-vitro assay the number of mosquito landing on a warm body, simulating an attractive host treated with the tested stimuli, was measured in order to assess the repellence effect.
On the sandblasted glass Petri dish covering the warm body (28.3 cm^2), 100 μL of the compounds diluted at different concentrations in ethanol was applied. The number of mosquito landing on the warm body was counted for each stimulus and pure ethanol (solvent) as control.

For `COc1cc(C)cc(OC)c1O` [compound 1537, 2,6-dimethoxy-4-methylphenol], the pest or weed control at 400 µg/mL [1] was 16.7%, the pest or weed control at 2000 µg/mL [1] was 58.3% and the pest or weed control at 10000 µg/mL [1] was 72.7%. For the same compound, the pest or weed control at 3.2 µg/mL ([2]; Aedes aegypti, 0.0032 mg/mL (Table 2), read-out: Percentage of repellence of mosquitoes Aedes aegypti landing on the warm body) was 0%, the pest or weed control at 16 µg/mL ([2]; Aedes aegypti, 0.016 mg/mL (Table 2), read-out: Percentage of repellence of mosquitoes Aedes aegypti landing on the warm body) was 35% and the pest or weed control at 35.7 µg/mL ([2]; Aedes aegypti, 0.0357 mg/mL (Table 2), read-out: Percentage of repellence of mosquitoes Aedes aegypti landing on the warm body) was 36%. It also gave a pest or weed control at 80 µg/mL ([2]; Aedes aegypti, 0.08 mg/mL (Table 2), read-out: Percentage of repellence of mosquitoes Aedes aegypti landing on the warm body) of 40%, a pest or weed control at 178 µg/mL ([2]; Aedes aegypti, 0.178 mg/mL (Table 2), read-out: Percentage of repellence of mosquitoes Aedes aegypti landing on the warm body) of 62% and a pest or weed control at 400 µg/mL ([2]; Aedes aegypti, 0.4 mg/mL (Table 2), read-out: Percentage of repellence of mosquitoes Aedes aegypti landing on the warm body) of 89%. The pest or weed control at 890 µg/mL ([2]; Aedes aegypti, 0.89 mg/mL (Table 2), read-out: Percentage of repellence of mosquitoes Aedes aegypti landing on the warm body) was 84%, the pest or weed control at 2000 µg/mL ([2]; Aedes aegypti, 2 mg/mL (Table 2), read-out: Percentage of repellence of mosquitoes Aedes aegypti landing on the warm body) was 100% and the pest or weed control at 10000 µg/mL ([2]; Aedes aegypti, 10 mg/mL (Table 2), read-out: Percentage of repellence of mosquitoes Aedes aegypti landing on the warm body) was 100%. For the same compound, the “plateau of mosquitoes moved to the untreated chamber” value ([3]; after 30 min of injection) was about 42%, the “mosquitoes landed on the volunteer” value ([4]; in 3 minutes, negative control 60.7±2.5 landings) was 14.7±2.5 and the “Spatial Repellence” value ([4]; large scale assay, 25 m3 chambers, compound released in the air) was 64.3 ± 3.4%. The Protective efficacy ([4]; large scale assay, probing on volunteer forearm, 3 minutes) was 75.8 ± 3.9% and the “mosquito entered the treated chamber” value ([4]; negative control 82.5±3.7%) was 29.5±2.8%.
`Cc1ccc2c(c1)OCC(=O)CO2` [compound 1228, 7-methyl-1,5-benzodioxepin-3-one] was tested, and the “Complete Protection Time (no confirmed landing)” value ([5]; arm treated with 20%) was 1.33 h, the “Number of mosquitoes landing on the treated arm (test)” value (“Number of mosquitoes landing” below) ([5]; arm treated with 20%, 30 min post-application) was 0 and the “Number of mosquitoes landing” value ([5]; arm treated with 20%, 1 h post-application) was 0. The “Number of mosquitoes landing” value ([5]; arm treated with 20%, 2 h post-application) was 3.0 ± 1.8, the “Number of mosquitoes landing” value ([5]; arm treated with 20%, 3 h post-application) was 7.5 ± 1.1 and the protection ([5]; at 3 h, on two volunteers) was 79.64%. The pest or weed control at 16 µg/mL ([2]; Aedes aegypti, 0.016 mg/mL (Table 3), read-out: Percentage of repellence of mosquitoes Aedes aegypti landing on the warm body) was 54%, the pest or weed control at 400 µg/mL ([2]; Aedes aegypti, 0.4 mg/mL (Table 3), read-out: Percentage of repellence of mosquitoes Aedes aegypti landing on the warm body) was 74% and the pest or weed control at 10000 µg/mL ([2]; Aedes aegypti, 10 mg/mL (Table 3), read-out: Percentage of repellence of mosquitoes Aedes aegypti landing on the warm body) was 100%. For the same compound, the pest or weed control at 1 % ([2]; Aedes aegypti, highest tested concentration, 1% (Table 3), read-out: repellence) was over 90%, the pest or weed control at 0.0016 % ([2]; Aedes aegypti, lowest concentration of 0.0016% (Table 3), read-out: reduce the number of mosquito landings) was over 50% and the “mosquito landing within the two minutes of experiments” value ([2]; highest tested concentration, 1% (Table 3)) was “protect the attractive stimulus for any mosquito landing”. The pest or weed control at 3.2 µg/mL ([6]; Anopheles gambiae, 0.0032 mg/mL (Table 5), read-out: Percentage of repellence of mosquitoes Anopheles gambiae landing on the warm body) was 0%, the pest or weed control at 80 µg/mL ([6]; Anopheles gambiae, 0.08 mg/mL (Table 5), read-out: Percentage of repellence of mosquitoes Anopheles gambiae landing on the warm body) was 0% and the pest or weed control at 178 µg/mL ([6]; Anopheles gambiae, 0.178 mg/mL (Table 4), read-out: Percentage of repellence of mosquitoes Anopheles gambiae landing on the warm body) was 48%. It also gave a pest or weed control at 178 µg/mL ([6]; Anopheles gambiae, 0.178 mg/mL (Table 5), read-out: Percentage of repellence of mosquitoes Anopheles gambiae landing on the warm body) of 48%, a pest or weed control at 267 µg/mL ([6]; Anopheles gambiae, 0.267 mg/mL (Table 4), read-out: Percentage of repellence of mosquitoes Anopheles gambiae landing on the warm body) of 85% and a pest or weed control at 267 µg/mL ([6]; Anopheles gambiae, 0.267 mg/mL (Table 5), read-out: Percentage of repellence of mosquitoes Anopheles gambiae landing on the warm body) of 71%. The pest or weed control at 400 µg/mL ([6]; Anopheles gambiae, 0.4 mg/mL (Table 4), read-out: Percentage of repellence of mosquitoes Anopheles gambiae landing on the warm body) was 65%, the pest or weed control at 400 µg/mL ([6]; Anopheles gambiae, 0.4 mg/mL (Table 5), read-out: Percentage of repellence of mosquitoes Anopheles gambiae landing on the warm body) was 66% and the pest or weed control at 598 µg/mL ([6]; Anopheles gambiae, 0.598 mg/mL (Table 5), read-out: Percentage of repellence of mosquitoes Anopheles gambiae landing on the warm body) was 69%. For the same compound, the pest or weed control at 2000 µg/mL ([6]; Anopheles gambiae, 2 mg/mL (Table 5), read-out: Percentage of repellence of mosquitoes Anopheles gambiae landing on the warm body) was 92%, the pest or weed control at 4470 µg/mL ([6]; Anopheles gambiae, 4.47 mg/mL (Table 4), read-out: Percentage of repellence of mosquitoes Anopheles gambiae landing on the warm body) was 92% and the pest or weed control at 4470 µg/mL ([6]; Anopheles gambiae, 4.47 mg/mL (Table 5), read-out: Percentage of repellence of mosquitoes Anopheles gambiae landing on the warm body) was 92%. For the same compound, the pest or weed control at 10000 µg/mL ([6]; Anopheles gambiae, 10 mg/mL (Table 4), read-out: Percentage of repellence of mosquitoes Anopheles gambiae landing on the warm body) was 100%, the pest or weed control at 10000 µg/mL ([6]; Anopheles gambiae, 10 mg/mL (Table 5), read-out: Percentage of repellence of mosquitoes Anopheles gambiae landing on the warm body) was 100% and the “repellence (no mosquito landing on the attractive stimulus)” value ([6]; with at least one of the two concentrations 0.447% & 1% (Table 4)) was 100%.
`CCN(CC)C(=O)c1cccc(C)c1` [DEET, N,N-diethyl-meta-toluamide, reference compound] was tested, and the “movement of mosquitoes towards the refuge chamber” value ([3]; after 40 min of injection in the treated chamber) was 16.2%±7.3%.
